Patent publication US20250313533A1, “QUINOLINE CARBOXYLIC ACID ESTER COMPOUND AND PREPARATION METHOD AND USE THEREOF” (priority 2019, published 2025)

Experiments:
[1] = test system: pathogenic bacteria causing bacterial angular leaf spot in cucumbers; experiment: In vitro bactericidal activity, bacterial angular leaf spot in cucumbers; assay type: cell-based, pseudomonas; settings: read-out: inhibitory rate; for inhibition at 1 ppm: dosage 1 ppm; for inhibition at 5 ppm: dosage 5 ppm
Experimental: (§1) Under aseptic conditions, equal amounts of NB culture medium were added to test tubes, and fixed amounts of the sample solutions were pipetted into the above test tubes in an ascending order of concentrations, respectively. The mixtures were well mixed and added with equal amounts of a bacterial suspension in log phase.
(§2) Each step of the procedure was repeated 4 times. After mixing, the mixture samples were incubated in the dark in a shaking incubator at 25° C. The OD values were measured when the bacteria were in log phase.

[2] = test system: pathogenic bacteria causing bacterial wilt in tobacco; experiment: whole plant or invertebrate; assay type: cell-based, ralstonia; settings: read-out: inhibitory rate
[3] = test system: pathogenic bacteria causing black shank in potatoes; experiment: In vitro bactericidal activity, black shank in potatoes; assay type: cell-based; settings: read-out: inhibitory rate; for inhibition at 1 ppm: dosage 1 ppm; for inhibition at 5 ppm: dosage 5 ppm
Experimental: as §1, §2

[4] = test system: pathogenic bacteria causing stem rot in sweet potatoes; experiment: In vitro bactericidal activity, stem rot in sweet potatoes; assay type: cell-based, dikia; settings: read-out: inhibitory rate; for inhibition at 1 ppm: dosage 1 ppm; for inhibition at 5 ppm: dosage 5 ppm
Experimental: as §1, §2

[5] = test system: pathogenic bacteria causing bacterial blight in rice; experiment: whole plant or invertebrate; assay type: cell-based, xanthomonas; settings: read-out: inhibitory rate
[6] = test system: pathogenic bacteria causing fruit blotch in watermelons; experiment: In vitro bactericidal activity, fruit blotch in watermelons; assay type: cell-based, acidovorax; settings: read-out: inhibitory rate; for inhibition at 1 ppm: dosage 1 ppm; for inhibition at 5 ppm: dosage 5 ppm
Experimental: as §1, §2

[7] = test system: pathogenic bacteria causing black rot in Chinese cabbages; experiment: In vitro bactericidal activity, black rot in Chinese cabbages; assay type: cell-based, xanthomonas; settings: Xanthomonas, read-out: inhibitory rate; for inhibition at 1 ppm: dosage 1 ppm; for inhibition at 5 ppm: dosage 5 ppm
Experimental: as §1, §2

[8] = test system: pathogenic bacteria causing bacterial wilt in cassava; experiment: organism not typed; assay type: cell-based; settings: read-out: inhibitory rate
[9] = test system: pathogenic bacteria causing fire blight in pears; experiment: In vitro bactericidal activity, fire blight in pears; assay type: cell-based, erwinia; settings: Erwinia, read-out: inhibitory rate; for inhibition at 1 ppm: dosage 1 ppm; for inhibition at 5 ppm: dosage 5 ppm
Experimental: as §1, §2

black shank in potatoes = experiment: Living crops in vivo protective activity, potatoes (root irrigation); settings: Solanum tuberosum, read-out: efficacy against black shank in potatoes; for pest or weed control at 5 ppm: dosage 5 ppm; for pest or weed control at 10 ppm: dosage 10 ppm
Experimental: Root irrigation was carried out on the potatoes for tests according to the designed concentration of the agents. The dosage for each plant was 200 mL and was kept consistent (also for the control). The black shank bacteria were inoculated on the second day after the application. The results were investigated according to the disease condition.

cucumber seedlings = experiment: Safety for plant growth after application; assay type: in vivo; settings: dosage 200 ppm
From the text: Taking indoor potted cucumber seedlings as an example, the influence of the compound disclosed herein on growth rate of plant height, chlorophyll content, leaf area, etc. of crops was mainly evaluated.
The results of safety and health-care effect of the compounds of the present disclosure on cucumber seedlings are shown in the following table 1: […]

[10] = test system: bacterial wilt in tobacco; experiment: whole plant or invertebrate; settings: Nicotiana tabacum, read-out: efficacy against bacterial wilt in tobacco
[11] = test system: stem rot in sweet potatoes; experiment: whole plant or invertebrate; settings: read-out: efficacy against stem rot in sweet potatoes
bacterial blight in rice = experiment: whole plant or invertebrate; settings: Oryza sativa, read-out: efficacy against bacterial blight in rice
[12] = test system: fruit blotch in watermelons; experiment: whole plant or invertebrate; settings: read-out: efficacy against fruit blotch in watermelons
[13] = test system: soft rot in Chinese cabbages; experiment: whole plant or invertebrate; settings: 48 h, read-out: efficacy against soft rot in Chinese cabbages

Compound | inhibition at 1 ppm [1] | inhibition at 5 ppm [1] | inhibition at 1 ppm [2] | inhibition at 5 ppm [2] | inhibition at 1 ppm [3] | inhibition at 5 ppm [3] | inhibition at 1 ppm [4] | inhibition at 5 ppm [4] | inhibition at 1 ppm [5] | inhibition at 5 ppm [5] | inhibition at 1 ppm [6] | inhibition at 5 ppm [6] | inhibition at 1 ppm [7] | inhibition at 5 ppm [7] | inhibition at 1 ppm [8] | inhibition at 5 ppm [8] | inhibition at 1 ppm [9] | inhibition at 5 ppm [9] | pest or weed control at 5 ppm (black shank in potatoes) | pest or weed control at 10 ppm (black shank in potatoes) | further results
O=C(OCCO)c1cn(C2CC2)c2ccc(Cl)cc2c1=O [Compound 44] | ≥ 80% | ≥ 90% | ≥ 80% | ≥ 90% | ≥ 80% | ≥ 90% | ≥ 80% | ≥ 90% | ≥ 80% | ≥ 90% | ≥ 80% | ≥ 90% | ≥ 80% | ≥ 90% | ≥ 80% | ≥ 90% | ≥ 80% | ≥ 90% | ≥ 80% | ≥ 90% | safety for plant growth (discoloration, necrosis, wilt, malformation) (cucumber seedlings): safe for plant growth; pest or weed control at 5 ppm [10]: ≥ 90%; pest or weed control at 10 ppm [10]: ≥ 90%; pest or weed control at 5 ppm [11]: ≥ 90%; pest or weed control at 10 ppm [11]: ≥ 90%; pest or weed control at 5 ppm (bacterial blight in rice): ≥ 80%; pest or weed control at 10 ppm (bacterial blight in rice): ≥ 90%; pest or weed control at 5 ppm [12]: ≥ 90%; pest or weed control at 10 ppm [12]: ≥ 90%; pest or weed control at 5 ppm [13]: ≥ 80%; pest or weed control at 10 ppm [13]: ≥ 90%
COCCOC(=O)c1cn(C2CC2)c2cc(SC)c(F)cc2c1=O [Compound 381, 2-methoxyethyl 1-cyclopropyl-6-fluoro-7-methylthio-4-oxo-1,4-dihydroquinoline-3-carboxylate] | ≥ 90% | ≥ 90% | ≥ 90% | ≥ 90% | ≥ 90% | ≥ 90% | ≥ 90% | ≥ 90% | ≥ 90% | ≥ 90% | ≥ 90% | ≥ 90% | ≥ 90% | ≥ 90% | ≥ 90% | ≥ 90% | ≥ 90% | ≥ 90% | ≥ 90% | ≥ 90% | safety for plant growth (discoloration, necrosis, wilt, malformation) (cucumber seedlings): safe for plant growth; pest or weed control at 5 ppm [10]: ≥ 90%; pest or weed control at 10 ppm [10]: ≥ 90%; pest or weed control at 5 ppm [11]: ≥ 90%; pest or weed control at 10 ppm [11]: ≥ 90%; pest or weed control at 5 ppm (bacterial blight in rice): ≥ 90%; pest or weed control at 10 ppm (bacterial blight in rice): ≥ 90%; pest or weed control at 5 ppm [12]: ≥ 90%; pest or weed control at 10 ppm [12]: ≥ 90%; pest or weed control at 5 ppm [13]: ≥ 90%; pest or weed control at 10 ppm [13]: ≥ 90%
O=C(OCCCO)c1cn(C2CC2)c2ccc(F)cc2c1=O [Compound 18] | ≥ 80% | ≥ 90% | ≥ 80% | ≥ 90% | ≥ 80% | ≥ 90% | ≥ 80% | ≥ 90% | ≥ 80% | ≥ 90% | ≥ 80% | ≥ 90% | ≥ 80% | ≥ 90% | ≥ 80% | ≥ 90% | ≥ 80% | ≥ 90% | ≥ 80% | ≥ 90% | safety for plant growth (discoloration, necrosis, wilt, malformation) (cucumber seedlings): safe for plant growth; pest or weed control at 5 ppm [10]: ≥ 90%; pest or weed control at 10 ppm [10]: ≥ 90%; pest or weed control at 5 ppm [11]: ≥ 90%; pest or weed control at 10 ppm [11]: ≥ 90%; pest or weed control at 5 ppm (bacterial blight in rice): ≥ 80%; pest or weed control at 10 ppm (bacterial blight in rice): ≥ 90%; pest or weed control at 5 ppm [12]: ≥ 90%; pest or weed control at 10 ppm [12]: ≥ 90%; pest or weed control at 5 ppm [13]: ≥ 80%; pest or weed control at 10 ppm [13]: ≥ 90%
O=C(OCCOC1CC1)c1cn(C2CC2)c2cc(Cl)c(F)cc2c1=O [Compound 160] | ≥ 80% | ≥ 90% | ≥ 80% | ≥ 90% | ≥ 80% | ≥ 90% | ≥ 80% | ≥ 90% | ≥ 80% | ≥ 90% | ≥ 80% | ≥ 90% | ≥ 80% | ≥ 90% | ≥ 80% | ≥ 90% | ≥ 80% | ≥ 90% | ≥ 80% | ≥ 90% | safety for plant growth (discoloration, necrosis, wilt, malformation) (cucumber seedlings): safe for plant growth; pest or weed control at 5 ppm [10]: ≥ 90%; pest or weed control at 10 ppm [10]: ≥ 90%; pest or weed control at 5 ppm [11]: ≥ 90%; pest or weed control at 10 ppm [11]: ≥ 90%; pest or weed control at 5 ppm (bacterial blight in rice): ≥ 80%; pest or weed control at 10 ppm (bacterial blight in rice): ≥ 90%; pest or weed control at 5 ppm [12]: ≥ 90%; pest or weed control at 10 ppm [12]: ≥ 90%; pest or weed control at 5 ppm [13]: ≥ 80%; pest or weed control at 10 ppm [13]: ≥ 90%
O=C(OCCO)c1cn(C2CC2)c2cc(F)ccc2c1=O [Compound 194] | ≥ 80% | ≥ 90% | ≥ 80% | ≥ 90% | ≥ 80% | ≥ 90% | ≥ 80% | ≥ 90% | ≥ 80% | ≥ 90% | ≥ 80% | ≥ 90% | ≥ 80% | ≥ 90% | ≥ 80% | ≥ 90% | ≥ 80% | ≥ 90% | ≥ 80% | ≥ 90% | safety for plant growth (discoloration, necrosis, wilt, malformation) (cucumber seedlings): safe for plant growth; pest or weed control at 5 ppm [10]: ≥ 90%; pest or weed control at 10 ppm [10]: ≥ 90%; pest or weed control at 5 ppm [11]: ≥ 90%; pest or weed control at 10 ppm [11]: ≥ 90%; pest or weed control at 5 ppm (bacterial blight in rice): ≥ 80%; pest or weed control at 10 ppm (bacterial blight in rice): ≥ 90%; pest or weed control at 5 ppm [12]: ≥ 90%; pest or weed control at 10 ppm [12]: ≥ 90%; pest or weed control at 5 ppm [13]: ≥ 80%; pest or weed control at 10 ppm [13]: ≥ 90%
